Test [1] concerns 2-phenyl-1,4-quinone induced writhing. As to the kind of experiment: 2-phenyl-1,4-quinone induced writhing assay in mice (analgesia). To be noted: Mus musculus, sc, read-out: ED50 (inhibition of writhing). The format is in vivo. The text has this:
Compounds of the invention are useful as analgesic agents due to their ability to alleviate pain in mammals. […] Exptl. Biol. Med., 95, 729 (1957)].

Test [2] has as its system mania (increased motor activity) produced in mice by morphine. As to the kind of experiment: Morphine antagonist test: inhibition of the characteristic mania (increased motor activity) produced in mice by morphine. The note with it: for % Inhibition (percent of pairs in which the mania is inhibited): subcutaneous, concurrently with 25 mg/kg morphine sulfate, 10 pairs of mice. The format is in vivo. The method, then:
A sample of 25 mg/kg of body weight of morphine sulfate and the compound of the invention to be tested are concurrently administered subcutaneously to 10 pairs of mice. The mice are then observed for inhibition of the characteristic mania (increased motor activity) normally produced in mice by morphine. Results are outlined in Table II and expressed as percent of pairs in which the mania is inhibited at a given dose level.

Setting [3] is: 0.5 h, mice, subcutaneous, drug administration time 30 minutes.
The mark [4] stands for this setting: 0.25 h, mice, subcutaneous, drug administration time 15 minutes.

SMILES strings stand for the structures. Read-outs that look alike come from different tables or passages of the source.

With `COc1cccc(C23CCC(C2)N(C)CC3)c1` (stereo not shown) [5-(3-methoxyphenyl)-2-methyl-2-azabicyclo[3.2.1]octane.HBr], the ED50 in test [1] (setting [3]) is 7.9 mg/kg. The “% Inhibition (percent of pairs in which the mania is inhibited)” value in test [2] (dose 50 mg/kg) was determined as 50%.

For `O=C(CCCN1CCC2(c3cccc(O)c3)CCC1C2)c1ccc(F)cc1` (stereo not shown) [2-[3-(4-fluorobenzoyl)propyl]-5-(3-hydroxyphenyl)-2-azabicyclo[3.2.1]octane], the ED50 in test [1] (setting [3]) came to 0.35 mg/kg. In the case of `CC(C)=CCN1CCC2(C)c3cc(O)ccc3CC1C2C` (stereo not shown) [pentazocine, reference compound], the ED50 in test [1] (setting [4]) is 1.5 mg/kg; in test [1] (setting [3]), 4.8 mg/kg; in test [2] (Mus musculus, sc, mice, concurrently with morphine sulfate, for comparison, read-out: dose exhibiting a 50% inhibition (of morphine mania)) it was more than 50 mg/kg. Consider `Oc1cccc(C23CCC(C2)N(CC2CC2)CC3)c1` (stereo not shown) [2-cyclopropylmethyl-5-(3-hydroxyphenyl)-2-azabicyclo[3.2.1]octane.HBr], for which the ED50 in test [1] (setting [3]) was found to be 6 mg/kg. Moreover, in test [2] (dose 25 mg/kg), the “% Inhibition (percent of pairs in which the mania is inhibited)” value was 100%. As to `CN1CC[C@]23c4c5ccc(O)c4O[C@H]2[C@@H](O)C=C[C@H]3[C@H]1C5` [morphine, reference compound], the ED50 in test [1] (0.5 h) worked out at 0.47 mg/kg. For `CCCN1CCC2(c3cccc(OC)c3)CCC1C2` (stereo not shown) [5-(3-methoxyphenyl)-2-n-propyl-2-azabicyclo[3.2.1]octane.HBr], the ED50 in test [1] (setting [4]) was found to be 7.4 mg/kg. Besides, the “% Inhibition (percent of pairs in which the mania is inhibited)” value in test [2] (dose 10 mg/kg) was 50%; in test [2] (dose 50 mg/kg) it was 100%. Consider `CCCN1CCC2(c3cccc(O)c3)CCC1C2` (stereo not shown) [5-(3-hydroxyphenyl)-2-n-propyl-2-azabicyclo[3.2.1]octane.HBr], for which the ED50 in test [1] (setting [4]) was 8.9 mg/kg. In test [2] (dose 50 mg/kg), the “% Inhibition (percent of pairs in which the mania is inhibited)” value is 100%. Turning to `CC(=O)Oc1cccc(C23CCC(C2)N(C)CC3)c1` (stereo not shown) [5-(3-acetoxyphenyl)-2-methyl-2-azabicyclo[3.2.1]octane.HBr], the “% Inhibition (percent of pairs in which the mania is inhibited)” value in test [2] (dose 50 mg/kg) stood at 100%.

Regarding `CCCCCN1CCC2(c3cccc(O)c3)CCC1C2` (stereo not shown) [2-n-amyl-5-(3-hydroxyphenyl)-2-azabicyclo[3.2.1]octane.HBr], the ED50 in test [1] (setting [3]) came to 11 mg/kg. The “% Inhibition (percent of pairs in which the mania is inhibited)” value in test [2] (dose 3 mg/kg) is 50%; in test [2] (dose 25 mg/kg) it was 100%. `CCCCN1CCC2(c3cccc(OC)c3)CCC1C2` (stereo not shown) [2-n-butyl-5-(3-methoxyphenyl)-2-azabicyclo[3.2.1]octane.HBr]: the ED50 in test [1] (setting [3]) is 4.6 mg/kg. The “% Inhibition (percent of pairs in which the mania is inhibited)” value in test [2] (dose 25 mg/kg) is on record as 100%.

On to `COc1cccc(C23CCC(C2)N(CCc2ccccc2)CC3)c1` (stereo not shown) [5-(3-methoxyphenyl)-2-phenethyl-2-azabicyclo[3.2.1]octane.HBr], for which, in test [1] (setting [3]), the ED50 worked out at 5.9 mg/kg. As for `CCCCN1CCC2(c3cccc(O)c3)CCC1C2` (stereo not shown) [2-n-butyl-5-(3-hydroxyphenyl)-2-azabicyclo[3.2.1]octane.HBr], the ED50 in test [1] (setting [4]) amounted to 9 mg/kg. In addition, the “% Inhibition (percent of pairs in which the mania is inhibited)” value in test [2] (dose 25 mg/kg) worked out at 100%.

`CN1CCC2(c3cccc(O)c3)CCC1C2` (stereo not shown) [5-(3-hydroxyphenyl)-2-methyl-2-azabicyclo[3.2.1]octane.HBr]: in test [1] (setting [3]), the ED50 worked out at 9.5 mg/kg. Further, in test [2] (dose 50 mg/kg), the “% Inhibition (percent of pairs in which the mania is inhibited)” value was 80%.

Take `Oc1cccc(C23CCC(C2)N(Cc2ccco2)CC3)c1` (stereo not shown) [2-(2-furylmethyl)-5-(3-hydroxyphenyl)-2-azabicyclo[3.2.1]octane.HBr]: in test [1] (setting [4]), the ED50 is 22 mg/kg. Also, in test [2] (dose 25 mg/kg), the “% Inhibition (percent of pairs in which the mania is inhibited)” value is 100%. In the case of `CC(=O)Oc1cccc(C23CCC(C2)N(CCc2ccccc2)CC3)c1` (stereo not shown) [5-(3-acetoxyphenyl)-2-phenethyl-2-azabicyclo[3.2.1]octane.HBr], in test [1] (setting [3]), the ED50 came to 6.1 mg/kg. Besides, the “% Inhibition (percent of pairs in which the mania is inhibited)” value in test [2] (dose 10 mg/kg) is 70%. As for `Oc1cccc(C23CCC(C2)N(CCc2ccccc2)CC3)c1` (stereo not shown) [5-(3-hydroxyphenyl)-2-phenethyl-2-azabicyclo[3.2.1]octane.HBr], in test [1] (setting [4]), the ED50 turned out to be 0.7 mg/kg. Besides, the “% Inhibition (percent of pairs in which the mania is inhibited)” value in test [2] (dose 1 mg/kg) was 50%; in test [2] (dose 50 mg/kg), 100%.

As to `O=C(CCCN1CCC2(c3cccc(O)c3)CCC1C2)c1ccc(F)cc1` (stereo not shown) [2-[3-(4-fluorobenzoyl)propyl]-5-(3-hydroxyphenyl)-2-azabicyclo[3.2.1]octane.HBr], in test [2] (dose 10 mg/kg), the “% Inhibition (percent of pairs in which the mania is inhibited)” value was found to be 100%. As for `CCCCCN1CCC2(c3cccc(OC)c3)CCC1C2` (stereo not shown) [2-n-amyl-5-(3-methoxyphenyl)-2-azabicyclo[3.2.1]octane.HBr], the ED50 in test [1] (setting [3]) stood at 5 mg/kg. Moreover, in test [2] (dose 30 mg/kg), the “% Inhibition (percent of pairs in which the mania is inhibited)” value came to 100%. As to `COc1cccc(C23CCC(C2)N(CCCC(=O)c2ccc(F)cc2)CC3)c1` (stereo not shown) [2-[3-(4-fluorobenzoyl)propyl]-5-(3-methoxyphenyl)-2-azabicyclo[3.2.1]octane.HBr], the ED50 in test [1] (1 h, mice, subcutaneous, drug administration time 60 minutes) was 0.7 mg/kg. Also, the “% Inhibition (percent of pairs in which the mania is inhibited)” value in test [2] (dose 10 mg/kg) stood at 100%.

The values above are taken from patent publication US4079141A, “Azabicycloalkanes” (priority 1976, dated 1978).
